Test system: MV-4-11 cells
Experiment: Gene expression microarray analysis (Affymetrix PrimeView) and GSEA
Format: cell-based, human
Details: MV-4-11, 48 hours, 1 μM each

## Nc1ccc(-c2cccs2)cc1NC(=O)c1ccc2c(c1)cc(C1CC1)n2CCN1CCOCC1 [ACY-1035]
  genes down-regulated greater than 2-fold relative to vehicle control: 72 genes

— article PMC5218480 (PLoS ONE, 2017)
